For data set [1], the system named is "Glyceptor" sequence-effector molecule interactions. The experiment in a line: interference with "Glyceptor" sequence-effector molecule interactions. The format is binding.
Data set [2] in a line: affinity coelectrophoresis of ELQ-IL-8 with heparan sulfate. The format is binding. Particulars: compared with native IL-8.
A short description of data set [3]: heparin-agarose column, NaCl gradient elution. As to conditions: NaCl gradient 0.125M up to 1M; 50 mM Tris. The format is binding. As for the experimental part:
A mutant IL-8 gene is synthesized in which the ELR sequence at positions 4-6 (Seq. ID No. 1) is modified to glu-leu-gln (ELQ). The modified gene is expressed in E. coli by standard techniques well known to those skilled in the art and the protein product is extracted from the lysed cell pellet with 6M guanidine-HCl. The extract is dialyzed against 50 mM Tris, 0.125M NaCl and passed over a heparin-agarose column. […] The mutant chemokine is eluted from the column at about 0.6-0.7M salt.

The nature of data set [4]: affinity coelectrophoresis of ELQ-IL-8 with heparin. The format is binding. As to conditions: compared with native IL-8. An excerpt: Commercial heparin (porcine mucosa, Sigma Biochemical) is radioactively labeled by first incorporating tyramine at the reducing end of the chains and then introducing radioactive iodine using the chloramine T reaction, a procedure well known in the art. The heparin is size fractionated on a Sephadex G-100 column (Pharmacia) and the last 10% of the heparin to elute is selected and utilized for the labeling. The labeled low molecular weight heparin is then bound to varying concentrations of IL-8 under equilibrium conditions using the technique of affinity coelectrophoresis, as described by Lee and Lander, Proc. Nat. Acad. Sci., U.S.A. (1991) 88, 2768-2772. Briefly, a horizontal 1% agarose gel is poured, using low melting point agarose, that contains nine rectangular wells of equal dimensions (about 3×10 mm). The buffer used comprises 125 mM sodium acetate, 50 mM MOPSO, pH 7.0. 0.5% 3-[3-cholamidopropyl) dimethylammonio]-1-propanesulfonate (CHAPS) may be used in the buffer to prevent adventitious binding of protein to vessel walls. The wells in the horizontal gel are subsequently filled with a requisite amount of 1% agarose which contains varying concentrations of IL-8 ranging from about 80 nM up to about 80 μM. The IL-8 may be produced by recombinant means as is well known in the art or may alternatively be produced as a synthetic peptide. […]

For a further data set, the system named is neutrophils. The experiment in a line: activation or attraction of neutrophils. Type of data set: cell-based.
The test system of data set [5] is "Glyceptor" sequences on post-capillary endothelium of human dermal tissue. The experiment in a line: binding of 125I-labeled chemokine to human dermal tissue, microscopic autoradiography. As to conditions: for binding of 125I-labeled chemokine to vasculature / post-capillary endothelium: microscopic autoradiography. As for the experimental part:
A sample of human dermal tissue of about 1 mm^3 is incubated with ^125 I-labeled human IL-8 as described in the art (see, e.g., Rot, A. (1992) Cytokine 4, 347, the disclosure of which is incorporated herein by reference).

The next data set concerns IL-8. The experiment in a line: IL-8 mediated inflammation, influx of polymorphonuclear leukocytes into the peritoneal cavity. The format is in vivo, mouse. Particulars: protamine chloride 100-250 mg i.v. (tail vein), IL-8 i.p.

In the case of `Cc1ccc(C(=O)Nc2ccc(S(=O)(=O)O)c3cc(S(=O)(=O)O)cc(S(=O)(=O)O)c23)cc1NC(=O)c1cccc(NC(=O)Nc2cccc(C(=O)Nc3cc(C(=O)Nc4ccc(S(=O)(=O)O)c5cc(S(=O)(=O)O)cc(S(=O)(=O)O)c45)ccc3C)c2)c1` [suramin], the “interference with "Glyceptor" sequence-effector molecule interactions” value in data set [1] is on record as “interferes with "Glyceptor" sequence-effector molecule interactions”.
With “ELQ-IL-8: mutant IL-8 in which the ELR sequence at positions 4-6 (Seq. ID No. 1) is modified to glu-leu-gln (ELQ)”, in data set [2], the “binding to heparan sulfate” value is “behaves in a similar fashion to native IL-8”. Further, in data set [3], the “salt concentration eluting from heparin-agarose column” value was 0.6 to 0.7 M. Moreover, the binding to heparin result in data set [4] is “behaves in a similar fashion to native IL-8”. Also, in the data set with neutrophils, the “activation or attraction of neutrophils” value is on record as “not able to activate or attract neutrophils”. Moreover, the “binding of labeled native IL-8 to vasculature in presence of ELQ-IL-8” value in data set [5] (10 fold excess over radiolabeled native IL-8, ex vivo) is “substantially reduced”. Moreover, the “binding of 125I-labeled chemokine to vasculature / post-capillary endothelium” value in data set [5] is reported as “Binding occurs in the same pattern as observed with native IL-8”.
For the molecule IL-8: 125I-labeled human IL-8, the “binding of 125I-labeled chemokine to vasculature / post-capillary endothelium” value in data set [5] is “binds preferentially to certain regions of the vasculature”.
For the molecule protamine chloride, in “toxicity of protamine”, the toxicity entry is “generally toxic agent”. Moreover, the “inhibition of neutrophil influx” value with IL-8 is recorded as “significant inhibition of neutrophil influx”.

The values are drawn from patent publication US5795860A, “Analogs for specific oligosaccharide-protein interactions and uses therefor” (Repligen Corporation, priority 1994, dated 1998).
